Patent US20150051206A1, “COMPOUNDS AND COMPOSITIONS AS C-KIT KINASE INHIBITORS” (IRM LLC, priority 2011, published 2015)

Biological target: T1, c-kit (Homo sapiens, UniProt P10721)
T1 construct: human Mo7e cells which endogenously express c-kit; endogenous in cells; host or cells: human Mo7e cells (promegakaryocytic leukemia line), stimulated with human recombinant SCF
Test: Mo7e cell proliferation assay (SCF dependent proliferation)
Format: cell-based
Conditions: Table 1; Mo7e cells stimulated with human recombinant SCF, 48 hours; 1% FBS
Protocol: Compounds of Formula (I) and Formula (II) provided herein were assayed to measure their capacity to inhibit c-kit and PDGFR kinases using the appropriate assay described below: c-Kit inhibition was evaluated using the Mo7e cell proliferation assay, and PDGFR inhibition was evaluated using the Rat A10 cell proliferation assay and the Human TG/HA-VSMC cell proliferation assay.
The compounds of Table 1 and Table 2 were tested for inhibition of SCF dependent proliferation using human Mo7e cells which endogenously express c-kit in a 384 well format. […] After 48 hours of incubation at 37° C., cell viability was measured by adding 25 uL of CellTiter Glo (Promega) to the cells and the luminescence was measured by a CLIPR CCD camera (Molecular Devices).
The IC50 value is given as that concentration of the test compound in question that provoke a response halfway between the baseline and maximum responses.

T1 sequence (P10721 26-976): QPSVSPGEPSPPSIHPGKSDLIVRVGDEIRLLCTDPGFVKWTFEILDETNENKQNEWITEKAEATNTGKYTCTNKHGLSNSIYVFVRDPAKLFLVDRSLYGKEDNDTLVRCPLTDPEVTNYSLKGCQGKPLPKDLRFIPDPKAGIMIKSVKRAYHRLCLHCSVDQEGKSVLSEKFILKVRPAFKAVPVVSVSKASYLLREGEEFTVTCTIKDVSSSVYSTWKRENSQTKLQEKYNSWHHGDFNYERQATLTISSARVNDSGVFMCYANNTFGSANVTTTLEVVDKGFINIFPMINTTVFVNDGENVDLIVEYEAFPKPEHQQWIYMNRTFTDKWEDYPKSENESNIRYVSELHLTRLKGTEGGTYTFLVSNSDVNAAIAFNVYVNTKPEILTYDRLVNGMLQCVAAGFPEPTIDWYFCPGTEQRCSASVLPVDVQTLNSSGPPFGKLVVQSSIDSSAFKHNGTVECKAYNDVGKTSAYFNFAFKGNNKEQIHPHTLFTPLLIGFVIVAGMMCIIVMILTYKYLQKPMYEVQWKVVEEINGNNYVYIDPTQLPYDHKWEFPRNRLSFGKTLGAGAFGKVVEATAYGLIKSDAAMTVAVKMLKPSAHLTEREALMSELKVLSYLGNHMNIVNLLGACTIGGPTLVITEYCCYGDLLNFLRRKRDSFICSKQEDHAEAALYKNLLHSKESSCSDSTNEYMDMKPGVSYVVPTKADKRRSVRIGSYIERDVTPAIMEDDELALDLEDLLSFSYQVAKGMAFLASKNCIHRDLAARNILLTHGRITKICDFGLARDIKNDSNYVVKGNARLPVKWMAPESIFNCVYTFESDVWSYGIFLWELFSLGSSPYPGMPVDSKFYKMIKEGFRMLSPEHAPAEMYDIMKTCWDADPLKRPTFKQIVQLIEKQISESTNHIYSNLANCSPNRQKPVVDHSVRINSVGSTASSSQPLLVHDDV

Row | Structure (SMILES) | IC50
1 | Cc1ccc(Nc2noc(-c3cscn3)n2)cc1NC(=O)c1cnc2ccccn12 [F15, N-(2-methyl-5-{[5-(1,3-thiazol-4-yl)-1,2,4-oxadiazol-3-yl]amino}phenyl)imidazo[1,2-a]pyridine-3-carboxamide] | 6 nM
2 | Cc1ccc(-c2nc(Nc3ccc(C)c(NC(=O)c4cnc5ccccn45)c3)no2)cn1 [F17, N-(2-methyl-5-{[5-(6-methylpyridin-3-yl)-1,2,4-oxadiazol-3-yl]amino}phenyl)imidazo[1,2-a]pyridine-3-carboxamide] | 2 nM
3 | Cc1ccc(-c2nc(-c3cccc(OC(F)(F)F)c3)no2)cc1NC(=O)c1cnc2ccccn12 [F6, N-(2-methyl-5-{3-[3-(trifluoromethoxy)phenyl]-1,2,4-oxadiazol-5-yl}phenyl)imidazo[1,2-a]pyridine-3-carboxamide] | 89 nM
4 | Cc1ccc(-c2nc(Cc3ccccc3F)no2)cc1NC(=O)c1cnc2ccccn12 [F9, N-(5-{3-[(2-fluorophenyl)methyl]-1,2,4-oxadiazol-5-yl}-2-methylphenyl)imidazo[1,2-a]pyridine-3-carboxamide] | 9 nM
5 | Cc1ccc(-c2nc(-c3cccc(C(F)(F)F)c3)no2)cc1NC(=O)c1cnc2ccccn12 [F7, N-(2-methyl-5-{3-[3-(trifluoromethyl)phenyl]-1,2,4-oxadiazol-5-yl}phenyl)imidazo[1,2-a]pyridine-3-carboxamide] | 69 nM
6 | Cc1ccnc(-c2noc(-c3ccc(C)c(NC(=O)c4cnc5ccccn45)c3)n2)c1 [F10, N-{2-methyl-5-[3-(4-methylpyridin-2-yl)-1,2,4-oxadiazol-5-yl]phenyl}imidazo[1,2-a]pyridine-3-carboxamide] | 24 nM
7 | Cc1ccc(Nc2noc(-c3cccc(N4CCN(C)CC4)c3)n2)cc1NC(=O)c1cnc2ccccn12 [F13, N-[2-methyl-5-({5-[3-(4-methylpiperazin-1-yl)phenyl]-1,2,4-oxadiazol-3-yl}amino)phenyl]imidazo[1,2-a]pyridine-3-carboxamide] | 71 nM
8 | Cc1ccc(Nc2noc(-c3ccnc(N4CCOCC4)c3)n2)cc1NC(=O)c1cnc2ccccn12 [F12, N-[2-methyl-5-({5-[2-(morpholin-4-yl)pyridin-4-yl]-1,2,4-oxadiazol-3-yl}amino)phenyl]imidazo[1,2-a]pyridine-3-carboxamide] | 40 nM

Same assay, conditions: Table 1; Mo7e cells stimulated with human recombinant SCF, 48 hours; 20% FBS (values marked *)

Row | Structure (SMILES) | IC50
9 | Cc1ccc(-c2nc(-c3cnccc3C(F)(F)F)no2)cc1NC(=O)c1cnc2ccccn12 [F4, N-(2-methyl-5-{3-[4-(trifluoromethyl)pyridin-3-yl]-1,2,4-oxadiazol-5-yl}phenyl)imidazo[1,2-a]pyridine-3-carboxamide] | 23 nM
10 | Cc1ccc(-c2nc(-c3ccc4c(c3)CCO4)no2)cc1NC(=O)c1cnc2ccccn12 [F5, N-{5-[3-(2,3-dihydro-1-benzofuran-5-yl)-1,2,4-oxadiazol-5-yl]-2-methylphenyl}imidazo[1,2-a]pyridine-3-carboxamide] | 73 nM
11 | Cc1ccc(-c2nc(Cc3ccccc3)no2)cc1NC(=O)c1cnc2ccccn12 [F3, N-[5-(3-benzyl-1,2,4-oxadiazol-5-yl)-2-methylphenyl]imidazo[1,2-a]pyridine-3-carboxamide] | 65 nM

Same assay, conditions: Table 2; Mo7e cells stimulated with human recombinant SCF, 48 hours; 1% FBS

Row | Structure (SMILES) | IC50
12 | Cc1ccc(-c2nc(-c3ccc(F)cc3)no2)cc1NC(=O)c1cnc2ccccn12 [F68] | > 10000 nM
13 | Cc1ccc(-c2nc(-c3ccc(C(F)(F)F)cc3)no2)cc1NC(=O)c1cnc2ccccn12 [F31, N-(2-methyl-5-{3-[4-(trifluoromethyl)phenyl]-1,2,4-oxadiazol-5-yl}phenyl)imidazo[1,2-a]pyridine-3-carboxamide] | 1040 nM
14 | Cc1ccc(-c2noc(-c3ccccn3)n2)cc1NC(=O)c1cnc2ccccn12 [F42, N-{2-methyl-5-[5-(pyridin-2-yl)-1,2,4-oxadiazol-3-yl]phenyl}imidazo[1,2-a]pyridine-3-carboxamide] | 105 nM
15 | Cc1ccc(-c2noc(-c3cccc(N4CCN(C)CC4)c3)n2)cc1NC(=O)c1cnc2ccccn12 [F53, N-(2-methyl-5-{5-[3-(4-methylpiperazin-1-yl)phenyl]-1,2,4-oxadiazol-3-yl}phenyl)imidazo[1,2-a]pyridine-3-carboxamide] | 101 nM
16 | Cc1ccc(-c2nc(-c3ccc(OC(F)(F)F)cc3)no2)cc1NC(=O)c1cnc2ccccn12 [F72] | > 10000 nM
17 | Cc1ccc(-c2nc(-c3ccccn3)no2)cc1NC(=O)c1cnc2ccccn12 [F24, N-(2-methyl-5-(3-(pyridin-2-yl)-1,2,4-oxadiazol-5-yl)phenyl)imidazo[1,2-a]pyridine-3-carboxamide] | 137 nM
18 | Cc1ccc(-c2noc(Cn3cnnn3)n2)cc1NC(=O)c1cnc2ccccn12 [F59, N-{2-methyl-5-[5-(1H-1,2,3,4-tetrazol-1-ylmethyl)-1,2,4-oxadiazol-3-yl]phenyl}imidazo[1,2-a]pyridine-3-carboxamide] | 646 nM
19 | Cc1ccc(-c2noc(-c3ccc(N4CCN(C)CC4)cc3)n2)cc1NC(=O)c1cnc2ccccn12 [F54, N-(2-methyl-5-{5-[4-(4-methylpiperazin-1-yl)phenyl]-1,2,4-oxadiazol-3-yl}phenyl)imidazo[1,2-a]pyridine-3-carboxamide] | 370 nM
20 | Cc1ccc(-c2noc(-c3ccc(C)c(NC(=O)c4cnc5ccccn45)c3)n2)cc1F [F69] | > 10000 nM
21 | Cc1ccc(-c2nc(-c3ccccc3)no2)cc1NC(=O)c1cnc2ccccn12 [F46, N-[2-methyl-5-(3-phenyl-1,2,4-oxadiazol-5-yl)phenyl]imidazo[1,2-a]pyridine-3-carboxamide] | 101 nM
22 | Cc1ccc(-c2noc(-c3nccn3C)n2)cc1NC(=O)c1cnc2ccccn12 [F49, N-{2-methyl-5-[5-(1-methyl-1H-imidazol-2-yl)-1,2,4-oxadiazol-3-yl]phenyl}imidazo[1,2-a]pyridine-3-carboxamide] | 232 nM
23 | Cc1ccc(-c2noc(CCn3ccnc3)n2)cc1NC(=O)c1cnc2ccccn12 [F57, N-(5-{5-[2-(1H-imidazol-1-yl)ethyl]-1,2,4-oxadiazol-3-yl}-2-methylphenyl)imidazo[1,2-a]pyridine-3-carboxamide] | 337 nM
24 | Cc1cccc(-c2noc(-c3ccc(C)c(NC(=O)c4cnc5ccccn45)c3)n2)n1 [F28, N-(2-methyl-5-(3-(6-methylpyridin-2-yl)-1,2,4-oxadiazol-5-yl)phenyl)imidazo[1,2-a]pyridine-3-carboxamide] | 252 nM
25 | Cc1ccc(-c2nc(-c3cccnc3)no2)cc1NC(=O)c1cnc2ccccn12 [F71] | > 10000 nM
26 | Cc1ccc(-c2noc(CCc3nccn3C)n2)cc1NC(=O)c1cnc2ccccn12 [F56, N-(2-methyl-5-{5-[2-(1-methyl-1H-imidazol-2-yl)ethyl]-1,2,4-oxadiazol-3-yl}phenyl)imidazo[1,2-a]pyridine-3-carboxamide] | 340 nM

Same assay, conditions: Table 2; Mo7e cells stimulated with human recombinant SCF, 48 hours; 20% FBS instead of 1% FBS (values marked *)

Row | Structure (SMILES) | IC50
27 | Cc1ccc(-c2nc(-c3ccc(C(F)(F)F)cn3)no2)cc1NC(=O)c1cnc2ccccn12 [F30, N-(2-methyl-5-{3-[5-(trifluoromethyl)pyridin-2-yl]-1,2,4-oxadiazol-5-yl}phenyl)imidazo[1,2-a]pyridine-3-carboxamide] | 359 nM
28 | Cc1ccc(-c2noc(-c3cccc(N4CCOCC4)c3)n2)cc1NC(=O)c1cnc2ccccn12 [F55, N-(2-methyl-5-{5-[3-(morpholin-4-yl)phenyl]-1,2,4-oxadiazol-3-yl}phenyl)imidazo[1,2-a]pyridine-3-carboxamide] | 330 nM
29 | Cc1ccc(-c2nc(Cc3ccccc3OC(F)(F)F)no2)cc1NC(=O)c1cnc2ccccn12 [F43, N-[2-methyl-5-(3-{[2-(trifluoromethoxy)phenyl]methyl}-1,2,4-oxadiazol-5-yl)phenyl]imidazo[1,2-a]pyridine-3-carboxamide] | 289 nM
30 | COc1ccnc(-c2noc(-c3ccc(C)c(NC(=O)c4cnc5ccccn45)c3)n2)c1 [F33, N-{5-[3-(4-methoxypyridin-2-yl)-1,2,4-oxadiazol-5-yl]-2-methylphenyl}imidazo[1,2-a]pyridine-3-carboxamide] | 265 nM
31 | Cc1ccc(-c2nc(-c3ncccc3F)no2)cc1NC(=O)c1cnc2ccccn12 [F29, N-{5-[3-(3-fluoropyridin-2-yl)-1,2,4-oxadiazol-5-yl]-2-methylphenyl}imidazo[1,2-a]pyridine-3-carboxamide] | 205 nM
32 | Cc1ccc(-c2nc(-c3cccnc3OCC(F)(F)F)no2)cc1NC(=O)c1cnc2ccccn12 [F38, N-(2-methyl-5-{3-[2-(2,2,2-trifluoroethoxy)pyridin-3-yl]-1,2,4-oxadiazol-5-yl}phenyl)imidazo[1,2-a]pyridine-3-carboxamide] | 192 nM
33 | Cc1ccc(-c2noc(-c3ccccc3)n2)cc1NC(=O)c1cnc2ccccn12 [F47, N-[2-methyl-5-(5-phenyl-1,2,4-oxadiazol-3-yl)phenyl]imidazo[1,2-a]pyridine-3-carboxamide] | 196 nM
34 | Cc1ccc(-c2nc(-c3ccc(C)c(NC(=O)c4cnc5ccccn45)c3)no2)cn1 [F50, N-{2-methyl-5-[5-(6-methylpyridin-3-yl)-1,2,4-oxadiazol-3-yl]phenyl}imidazo[1,2-a]pyridine-3-carboxamide] | 850 nM
35 | Cc1ccc(-c2nc(COc3ccccc3)no2)cc1NC(=O)c1cnc2ccccn12 [F32, N-{2-methyl-5-[3-(phenoxymethyl)-1,2,4-oxadiazol-5-yl]phenyl}imidazo[1,2-a]pyridine-3-carboxamide] | 249 nM
